Source: US20100267561A1, “HERBICIDAL PYRIDAZINONE DERIVATIVES” (priority 2007, published 2010)
Read-outs that look alike come from different tables or passages of the source.

How the values were obtained:
Assay in all cases: Test B pre-/postemergence plant response
Type in all cases: in vivo
[1] = test system: corn (Zea mays); details: Zea mays; for Corn plant response rating (crop injury, 0 = no effect, 100 = complete kill) at 16 g/ha: 16 g ai/ha; for Corn plant response rating (crop injury, 0 = no effect, 100 = complete kill) at 31 g/ha: 31 g ai/ha, 100 complete control; for Corn plant response rating (crop injury, 0 = no effect, 100 = complete kill) at 62 g/ha: 62 g ai/ha; for Corn plant response rating (crop injury, 0 = no effect, 100 = complete kill) at 125 g/ha: 125 g ai/ha
Procedure, shortened: (§1)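 Visual scoring from 0 (no effect) to 100 (complete control) against untreated controls was done 13 to 15 days after greenhouse treatment. Chemicals were formulated in a surfactant-containing non-phytotoxic solvent and applied to soil preemergence or to 1- to 4-leaf (2-18 cm) plants postemergence.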

[2] = test system: lambsquarters (Chenopodium album); details: Chenopodium album, read-out: Plant response rating, Lambsquarters; for pest or weed control at 16 g/ha: 16 g ai/ha; for pest or weed control at 31 g/ha: 31 g ai/ha, 100 complete control; for pest or weed control at 125 g/ha: 125 g ai/ha
Procedure, shortened: as §1

[3] = test system: wheat (Triticum aestivum); details: Triticum aestivum, read-out: Plant response rating, Wheat; for plant injury at 16 g/ha: 16 g ai/ha; for plant injury at 31 g/ha: 31 g ai/ha, 100 complete control; for plant injury at 62 g/ha: 62 g ai/ha; for plant injury at 125 g/ha: 125 g ai/ha
Procedure, shortened: as §1

[4] = test system: blackgrass (Alopecurus myosuroides); details: Alopecurus myosuroides, read-out: Plant response rating, Blackgrass; for pest or weed control at 16 g/ha: 16 g ai/ha; for pest or weed control at 31 g/ha: 31 g ai/ha, 100 complete control; for pest or weed control at 62 g/ha: 62 g ai/ha; for pest or weed control at 125 g/ha: 125 g ai/ha
Procedure, shortened: as §1

[5] = test system: bermudagrass (Cynodon dactylon); details: Cynodon dactylon, read-out: Plant response rating, Bermudagrass; for pest or weed control at 16 g/ha: 16 g ai/ha; for pest or weed control at 31 g/ha: 31 g ai/ha, 100 complete control; for pest or weed control at 62 g/ha: 62 g ai/ha; for pest or weed control at 125 g/ha: 125 g ai/ha
Procedure, shortened: as §1

[6] = test system: surinam grass (Brachiaria decumbens); details: Urochloa decumbens, read-out: Plant response rating, Surinam Grass; for pest or weed control at 16 g/ha: 16 g ai/ha; for pest or weed control at 31 g/ha: 31 g ai/ha, 100 complete control; for pest or weed control at 62 g/ha: 62 g ai/ha
Procedure, shortened: as §1

[7] = post-emergence, Postemergence, scale 0 to 100
[8] = post-emergence, Postemergence, scale 0 to 100, 0 no effect
[9] = pre-emergence, Preemergence, scale 0 to 100 (0 no effect, 100 complete control)
[10] = pre-emergence, Preemergence, 0 to 100 scale, 0 no effect
[11] = pre-emergence, Preemergence, scale 0 to 100

Question: Which results are given for `CCc1cc(-c2ccc(C(F)(F)F)cc2)nn1-c1c(O)cnn(C)c1=O` [Compound 11, 4-[5-ethyl-3-[4-(trifluoromethyl)phenyl]-1H-pyrazol-1-yl]-5-hydroxy-2-methyl-3(2H)-pyridazinone]?
Answer: Corn plant response rating (crop injury, 0 = no effect, 100 = complete kill) at 16 g/ha [1, 7]: 100%; Corn plant response rating (crop injury, 0 = no effect, 100 = complete kill) at 31 g/ha [1, 8]: 100%; Corn plant response rating (crop injury, 0 = no effect, 100 = complete kill) at 62 g/ha [1, 7]: 100%; Corn plant response rating (crop injury, 0 = no effect, 100 = complete kill) at 125 g/ha [1, 7]: 100%; Corn plant response rating (crop injury, 0 = no effect, 100 = complete kill) at 16 g/ha [1, 9]: 70%; Corn plant response rating (crop injury, 0 = no effect, 100 = complete kill) at 31 g/ha [1, 10]: 85%; Corn plant response rating (crop injury, 0 = no effect, 100 = complete kill) at 62 g/ha [1, 11]: 95%; Corn plant response rating (crop injury, 0 = no effect, 100 = complete kill) at 125 g/ha [1, 11]: 100%; pest or weed control at 16 g/ha [2, 7]: 0%; pest or weed control at 31 g/ha [2, 8]: 0%; pest or weed control at 62 g/ha ([2]; post-emergence, Postemergence, 62 g ai/ha, scale 0 to 100): 0%; pest or weed control at 125 g/ha [2, 7]: 0%; pest or weed control at 16 g/ha [2, 9]: 0%; pest or weed control at 31 g/ha [2, 10]: 0%; pest or weed control at 125 g/ha [2, 11]: 0%; plant injury at 16 g/ha [3, 7]: 90%; plant injury at 31 g/ha [3, 8]: 100%; plant injury at 62 g/ha [3, 7]: 100%; plant injury at 125 g/ha [3, 7]: 100%; plant injury at 16 g/ha [3, 9]: 90%; plant injury at 31 g/ha [3, 10]: 95%; plant injury at 62 g/ha [3, 11]: 95%; plant injury at 125 g/ha [3, 11]: 100%; pest or weed control at 16 g/ha [4, 7]: 100%; pest or weed control at 31 g/ha [4, 8]: 100%; pest or weed control at 62 g/ha [4, 7]: 100%; pest or weed control at 125 g/ha [4, 7]: 100%; pest or weed control at 16 g/ha [4, 9]: 100%; pest or weed control at 31 g/ha [4, 10]: 100%; pest or weed control at 62 g/ha [4, 11]: 100%; pest or weed control at 125 g/ha [4, 11]: 100%; pest or weed control at 16 g/ha [5, 7]: 100%; pest or weed control at 31 g/ha [5, 8]: 100%; pest or weed control at 62 g/ha [5, 7]: 100%; pest or weed control at 125 g/ha [5, 7]: 100%; pest or weed control at 16 g/ha [5, 9]: 100%; pest or weed control at 31 g/ha [5, 10]: 100%; pest or weed control at 62 g/ha [5, 11]: 100%; pest or weed control at 125 g/ha [5, 11]: 100%; pest or weed control at 16 g/ha [6, 7]: 100%; pest or weed control at 31 g/ha [6, 8]: 100%; pest or weed control at 62 g/ha [6, 7]: 100%; pest or weed control at 125 g/ha ([6]; post-emergence, Postemergence, 125 g ai/ha, scale 0 to 100): 100%; pest or weed control at 16 g/ha [6, 9]: 100%; pest or weed control at 31 g/ha [6, 10]: 100%; pest or weed control at 62 g/ha [6, 11]: 100%
